Values joined by “and” are separate entries in the source; they are usually repeats but may differ in a detail not shown here. Equal entries are not always repeated.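 Interpolation was linear, between the two tested concentrations surrounding the appropriate level; five concentrations were tested over 48 hours in 96-well plates. GI50 = concentration required for 50% inhibition of growth. TGI marks complete inhibition of growth.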
Key:
Test in all cases: NCI tumour cell line growth inhibition, 48 h
[1] = test system: RXF-631 renal
[2] = test system: DMS 273 small cell lung
[3] = test system: M19-MEL melanoma
[4] = test system: HOP-18 NSCLC
[5] = test system: DLD-1 colon
[6] = test system: LXFL 529 NSCLC
[7] = test system: DMS 114 small cell lung
[8] = test system: SNB-78 CNS
[9] = test system: XF 498 CNS
[10] = test system: P388/ADR leukemia
[11] = test system: SN12K1 renal

Structure (SMILES)	TGI [1]	TGI [2]	TGI [3]	TGI [4]	TGI [5]	TGI [6]	TGI [7]	TGI [8]	TGI [9]	GI50 [2]	GI50 [3]	GI50 [4]	GI50 [10]	TGI [10]	GI50 [5]	GI50 [7]	GI50 [11]	TGI [11]	GI50 [8]	GI50 [9]
CCSC1=C(C)N(C=NC(C)(C)C)CC1	> 100 µM	> 100 µM	> 100 µM	> 100 µM	> 100 µM	> 100 µM	> 100 µM	> 100 µM	> 100 µM	–	–	–	–	–	–	–	–	–	–	–
CCOC(=O)C(=Cc1ccc(C(=O)OC)cc1)C(=O)OCC	–	3.9 µM	10.2 µM	10.7 µM	4.46 µM	3.62 µM	3.74 µM	–	–	–	–	–	–	–	–	–	–	–	–	–
CC(=O)O[C@]12CCCC1C1(O)C(O)CCCC12 (some centres not stated)	–	> 100 µM	> 100 µM	> 100 µM	–	> 100 µM	> 100 µM	> 100 µM	> 100 µM	–	–	–	–	–	–	–	–	–	–	–
O=[Se](=O)c1ccccc1.O=[Se](=O)c1ccccc1.[Cu]	–	38.3 µM	15.2 µM	41.1 µM	40.5 µM	–	14.9 µM	17.1 µM	28.9 µM	20.4 µM	5.95 µM	23.4 µM	3.99 µM	24.4 µM	18.9 µM	6.77 µM	7.41 µM	17.6 µM	12.4 µM	15.5 µM
C/C(=N\NC(N)=S)C(CN(CC(C)C)CC(C)C)C(=O)Nc1ccc(C)cc1C (configuration not stated)	–	> 100 µM	> 100 µM	> 100 µM	> 100 µM	> 100 µM	> 100 µM	> 100 µM	> 100 µM	–	–	–	–	–	–	–	–	–	–	–
c1ccc2c(c1)nc(NC1CCCC1)c1[nH]c(C3CCCC3)nc12	–	22.3 µM	27.7 µM	45.5 µM	> 100 µM	22.8 µM	35.4 µM	> 92.7 µM	34.4 µM	–	–	–	–	–	–	–	–	–	–	–
Cc1cccc(C2=NC(C)(C)C(C)(C)N=C2c2cccc(C)n2)n1	> 100 µM	> 100 µM	> 100 µM	> 100 µM	> 100 µM	> 100 µM	> 100 µM	> 100 µM	> 100 µM	–	–	–	–	–	–	–	–	–	–	–
O=C1Nc2cc([N+](=O)[O-])ccc2NC1/C(=N\Nc1ccccc1)C(O)c1cccc([N+](=O)[O-])c1 (configuration not stated)	> 100 µM	> 100 µM	> 100 µM	–	> 100 µM	> 100 µM	> 100 µM	> 100 µM	> 100 µM	–	–	–	–	–	–	–	–	–	–	–
c1ccc2c(c1)CCc1cc3cc4c(nc3nc1-2)-c1ccccc1CC4	–	> 100 µM	> 100 µM	–	> 100 µM	> 100 µM	–	> 100 µM	–	–	–	–	–	–	–	–	–	–	–	–
NC(=O)C#CC(N)=O	> 100 µM	73.1 µM and 106 µM and > 100 µM	24.8 µM and 22.4 µM and > 65.8 µM	43.5 µM and 33.2 µM	87.5 µM and 68.3 µM and > 100 µM	> 100 µM	71.5 µM and 125 µM and > 100 µM	72.3 µM and 202 µM and > 100 µM	–	23.5 µM and 30.5 µM and > 100 µM	11.8 µM and 10.1 µM and 28.6 µM	–	–	875 µM	26.5 µM and 22.2 µM and 62.5 µM	24.4 µM and 38.3 µM and > 100 µM	14.8 µM	27.4 µM and 26.7 µM	22.5 µM and 121 µM	–
Cc1cc(S(=O)(=O)O)c(NC(=O)C(=O)C2C=CCS2(=O)=O)cc1Cl (configuration not stated)	–	> 100 µM	> 100 µM	> 100 µM	> 100 µM	> 100 µM	> 100 µM	> 100 µM	> 100 µM	–	–	–	–	–	–	–	–	–	–	–
O=C1NC2(CCCCC2)C2CCCCCC12 (configuration not stated)	> 100 µM	–	–	–	> 100 µM	> 100 µM	> 100 µM	> 100 µM	> 100 µM	–	–	–	–	–	–	–	–	–	–	–
O=C1c2c(nc3ccccc3c2-c2ccccc2)CN1Nc1ccccn1	50.7 µM	> 100 µM	> 100 µM	–	> 100 µM	> 100 µM	> 76.1 µM	> 42.3 µM	> 100 µM	–	–	–	–	–	–	–	–	–	–	–
C=C1C(=O)OCC2C(C(=O)O)=CC3C(C)C(C)=CC123 (configuration not stated)	–	59.6 µM	54.6 µM	34.2 µM	45.7 µM	–	33.8 µM	117 µM	24.8 µM	–	–	–	–	21.9 µM	–	–	–	29.6 µM	–	–
Cc1cccc(NC(=O)C(=O)C(C(=O)c2ccccc2F)C2OC(=O)c3ccccc32)c1Cl (configuration not stated)	–	> 100 µM	> 100 µM	–	> 100 µM	> 100 µM	53 µM	> 100 µM	> 100 µM	–	–	–	–	–	–	–	–	–	–	–
